The results in this text go back to ChEMBL document CHEMBL5260858, “Targeting mycobacterial membranes and membrane proteins: Progress and limitations” (Bioorg Med Chem, 2023).

In brackets after ≈: the same amount, converted by molar mass.

In assay [1] the test system is Mycobacterium tuberculosis. The experiment in a line: Antitubercular activity against Mycobacterium tuberculosis H37Rv assessed as bacterial growth inhibition. The assay is classed as functional.
Assay [2] relates to Mycobacterium tuberculosis. As to the kind of experiment: Antitubercular activity against Mycobacterium tuberculosis MDR_CHUV assessed as bacterial growth inhibition by REMA analysis. The assay is classed as functional.
Assay [3] deals with Mycobacterium tuberculosis. As to the kind of experiment: Antitubercular activity against Mycobacterium tuberculosis H37Rv infected in human monocyte macrophage assessed as bacterial growth inhibition and measured after 21 days by colony counting based analysis. The settings on record: 504 h, time 21 day. The assay is classed as functional.
Assay [4] deals with Mycobacterium tuberculosis. The experiment in a line: Antitubercular activity against Mycobacterium tuberculosis H37Rv ATCC25618 assessed as bacterial growth inhibition incubated for 6 days by resazurin based fluorescence analysis. The assay is classed as functional. The note with it: H37Rv ATCC25618, 144 h, time 6 day. For orientation: Alamar Blue is a resazurin reagent that responds to reducing activity.

Assay [5] deals with Mycobacterium tuberculosis. As to the kind of experiment: In vivo antimycobacterial activity against Mycobacterium tuberculosis H37Rv infected in BALB/c mouse assessed as reduction in log10 CFU in lungs at 50 mg/kg, po and measured after 4 weeks. The assay is classed as functional.
For assay [6], the system named is Mycobacterium tuberculosis. The experiment in a line: In vivo antimycobacterial activity against Mycobacterium tuberculosis H37Rv infected in BALB/c mouse assessed as reduction in log10 CFU in lungs at 12.5 mg/kg, po and measured after 4 weeks. The assay is classed as functional.
Assay [7] relates to Mycobacterium tuberculosis. As to the kind of experiment: Antitubercular activity against Mycobacterium tuberculosis mc2 7000 assessed as bacterial growth inhibition incubated for 6 days by resazurin based fluorescence assay. The assay is classed as functional. The note with it: mc2 7000, 144 h, time 6 day.
Assay [8] relates to Mycobacterium tuberculosis. As to the kind of experiment: Antimycobacterial activity against Mycobacterium tuberculosis H37Rv assessed as bacterial growth inhibition incubated for 6 days by resazurin dye based assay. The assay is classed as functional. The note with it: 144 h, time 6 day.
Assay [9] deals with Mycobacterium tuberculosis. As to the kind of experiment: Antitubercular activity against Mycobacterium tuberculosis assessed as bacterial growth inhibition. The assay is classed as functional.
Assay [10] has as its system Mycobacterium tuberculosis. As to the kind of experiment: Antitubercular activity against Mycobacterium tuberculosis H37Rv expressing GFP assessed as bacterial growth inhibition by measuring GFP fluorescence incubated for 72 hrs by fluorescence analysis. The assay is classed as functional.
Assay [11] has as its system Mycobacterium tuberculosis. As to the kind of experiment: Antitubercular activity against Mycobacterium tuberculosis H37Rv infected in human THP-1 cells assessed as bacterial growth inhibition incubated for 48 hrs by PrestoBlue staining based fluorescence analysis. The assay is classed as functional, organism-based. The settings on record: THP-1, 48 h.
Assay [12] has as its system Mycobacterium tuberculosis. As to the kind of experiment: Antitubercular activity against Mycobacterium tuberculosis H37Rv assessed as bacterial growth inhibition incubated for 7 days by resazurin reduction microplate assay. The settings on record: 168 h, time 7 day. The assay is classed as functional.
The subject of assay [13] is Mycobacterium tuberculosis. The experiment in a line: Antimycobacterial activity against Mycobacterium tuberculosis H37Rv ATCC27294 assessed as bacterial growth inhibition incubated for 7 days by microplate Alamar blue assay. The assay is classed as functional. The settings on record: H37Rv ATCC27294, 168 h, time 7 day.
Assay [14] deals with Mycobacterium tuberculosis. As to the kind of experiment: Antitubercular activity against Mycobacterium tuberculosis H37Rv assessed as bacterial growth inhibition incubated for 6 days by resazurin based fluorescence assay. The assay is classed as functional. The settings on record: 144 h, time 6 day.
Assay [15] concerns Mycobacteroides abscessus. As to the kind of experiment: Antitubercular activity against Mycobacterium abscessus CIP104536 assessed as bacterial growth inhibition incubated 3 to 5 days by resazurin based broth microdilution method. The settings on record: time 3-5 day. The assay is classed as functional.
Assay [16] has as its system Mycobacterium tuberculosis. The experiment in a line: Antitubercular activity against Mycobacterium tuberculosis H37Rv assessed as bacterial growth inhibition incubated for 6 days by resazurin reduction microplate assay. The assay is classed as functional. The note with it: 144 h, time 6 day.
The test system of assay [17] is Mycobacterium tuberculosis. The experiment in a line: Antitubercular activity against Mycobacterium tuberculosis H37Rv ATCC 27294 infected in mouse J774 cells assessed as intracellular bacterial growth inhibition incubated for by resazurin microtiter assay. The assay is classed as functional.
In assay [18] the test system is Mycobacterium tuberculosis. The experiment in a line: Antitubercular activity against Mycobacterium tuberculosis H37Rv ATCC 27294 assessed as bacterial growth inhibition by resazurin microtiter assay. The assay is classed as functional.
Assay [19] relates to Mycobacterium tuberculosis. The experiment in a line: Antitubercular activity against Mycobacterium tuberculosis H37Rv assessed as bacterial growth inhibition and measured upto 14 days by microplate alamar blue assay. The assay is classed as functional. The settings on record: 336 h, time <= 14 day.
In assay [20] the test system is Mycobacterium tuberculosis. The experiment in a line: Antitubercular activity against Mycobacterium tuberculosis H37Rv assessed as bacterial growth inhibition incubated for 24 hrs by [14C]-acetate labelling based radiometric analysis. The assay is classed as functional.
Assay [21] concerns Mycobacterium tuberculosis. As to the kind of experiment: Antitubercular activity against Mycobacterium tuberculosis H37Rv assessed as bacterial growth inhibition by REMA analysis. The assay is classed as functional.

In the case of `O=c1nc(N2CCN(CC3CCCCC3)CC2)sc2c([N+](=O)[O-])cc(C(F)(F)F)cc12` [MACOZINONE], the MIC99 worked out at 0.003 µg/mL (≈ 0.00657 µM) in [1] and 0.0004 µg/mL (≈ 0.000876 µM) in [2].
Regarding `Cc1cc2nc(CCC3CCCCC3)[nH]c2cc1C`, in assay [3], the MIC99 is 0.145 µM (≈ 0.0372 µg/mL).
As usually defined, the MIC is the least concentration at which growth counts as inhibited. Consider `CCCc1ccc(NC(=O)COc2cc(C)nc3ccc(OC)cc23)cc1`, for which, in [4], the MIC was 0.02 µg/mL (≈ 0.0549 µM).
In the case of `CC1(C)CCC(NC(=O)c2cc3c(Cl)cc(Cl)cc3[nH]2)CC1`, the Activity is given as 3.82 log10CFU in [5] and 1.24 log10CFU in assay [6].
Regarding `O=c1c(NCc2ccccn2)c(-c2ccc(N3CCOCC3)cc2)c1=O`, the MIC in [1] was 0.016 µg/mL.
In the case of `CCOC(=O)c1c(-c2ccccc2)oc2ccc(O)c(CN3CCCCC3)c12`, the minimum inhibitory concentration (MIC) in assay [7] was determined as 0.4 µM (≈ 0.152 µg/mL).
Take `O=c1nc(N2CCN(S(=O)(=O)C3CC3)CC2)sc2c([N+](=O)[O-])cc(C(F)(F)F)cc12`: in assay [8], the MIC came out at 0.003 µg/mL (≈ 0.00646 µM).
On to `Clc1ccc2c(c1)N(CCC[P+](c1ccccc1)(c1ccccc1)c1ccccc1)c1ccccc1S2.[Cl-]`, for which the minimum inhibitory concentration (MIC) in [9] amounted to 1 µg/mL.
For orientation: IC90 means the concentration needed for an effect of 90%. For the compound `CC(C)(C)c1ccc(Cn2cnc([N+](=O)[O-])n2)cc1`, in assay [10], the IC90 came out at 0.5 µM.
One may read the IC50 as the concentration needed to halve the response being measured. For `CCSc1nc(NC)c2ccccc2n1`, in assay [11], the 50% inhibitory concentration (IC50) was found to be 0.012 µg/mL (≈ 0.0547 µM). The minimal inhibitory concentration (MIC) in [12] was found to be 0.09 µg/mL (≈ 0.41 µM).
Consider `CCCn1cnc2cc(NCc3ccc(Cl)cc3Cl)ccc21`, for which, in assay [10], the IC90 was 16 µM.
Take `CNC(=O)c1c(-c2ccccc2)oc2ccc(O)c(CN3CCCCC3)c12`: the MIC in assay [7] came out at 0.2 µM (≈ 0.0729 µg/mL).
For `O=c1nc(N2CCC3(CCN(Cc4ccc(F)cc4)C3)CC2)sc2c([N+](=O)[O-])cc(C(F)(F)F)cc12`, in assay [13], the minimal inhibitory concentration (MIC) was below 0.035 µM.
The same measure, in the same setting: next, `O=c1nc(N2CC3CN(Cc4ccc(OC(F)(F)F)cc4)CC3C2)sc2c([N+](=O)[O-])cc(C(F)(F)F)cc12` (centres undefined): below 0.035 µM.
For `CCc1ccc([C@H]2C[C@@H](C(F)(F)F)n3ncc(C(=O)NCc4ccc(OC)cc4)c3N2)cc1`, the MIC in [14] came to 0.25 µM (≈ 0.115 µg/mL).
For `OC1(c2ccc(Cl)c(C(F)(F)F)c2)CCN(Cc2ccccc2I)CC1`, in assay [15], the MIC99 amounted to 0.125 µg/mL (≈ 0.252 µM).
Consider `CCc1nc2ccc(Cl)cn2c1C(=O)NCc1ccc(N2CCC(c3ccc(OC(F)(F)F)cc3)CC2)cc1` [TELACEBEC], for which the minimum inhibitory concentration (MIC) in assay [1] was 0.0027 µM.
`O=C(/C=C/c1nccs1)N1CCN(Cc2ccc3c(c2)OCO3)CC1`: the MIC in assay [16] came to 0.3 µg/mL (≈ 0.839 µM). The 50% inhibitory concentration (IC50) in [11] is 1.8 µg/mL (≈ 5.04 µM).
What is called MIC90 is an inhibitory concentration at the 90% level, which refers to growth in some studies and to a panel of isolates in others. Turning to `CC1(C)CC(=O)C(=CNc2ccccc2O)C(=O)C1`, in assay [17], the MIC was 8 µg/mL (≈ 30.9 µM). In assay [18], the MIC90 stood at 7 µg/mL (≈ 27 µM).
For `Cc1cc(C)c2cc(C(=O)NC3CCCCC3)[nH]c2c1`, the minimal inhibitory concentration (MIC) in [19] is 0.125 µg/mL (≈ 0.462 µM).
For the compound `CCc1ccc([C@H]2C[C@@H](C(F)(F)F)n3ncc(C(=O)NCc4ccc5c(c4)OCO5)c3N2)cc1`, in assay [20], the MIC was determined as 0.16 µM (≈ 0.0756 µg/mL).
For `CCCCCc1ccc(NC(=O)COc2cc(C)nc3ccc(OC)cc23)cc1`, in [4], the minimal inhibitory concentration (MIC) amounted to 0.02 µg/mL (≈ 0.051 µM).
As to `CCNc1nc(SCC)nc2ccccc12`, the concentration for half-maximal inhibition (IC50) in [11] was determined as 0.011 µg/mL (≈ 0.0471 µM). Also, in assay [12], the minimum inhibitory concentration (MIC) amounted to 0.05 µg/mL (≈ 0.214 µM).
With `Cc1cc(C)c2cc(C(=O)NC3CCCCCCC3)[nH]c2c1`, the MIC in assay [19] stood at 0.0039 µg/mL (≈ 0.0131 µM).
For `Brc1ccc2[nH]c(CCC3CCCCC3)nc2c1`, the MIC99 in assay [3] was 2.44 µM (≈ 0.75 µg/mL).
Regarding `CCc1ccc([C@H]2C[C@@H](C(F)(F)F)n3ncc(C(=O)NCc4ccc(F)cc4)c3N2)cc1`, in [20], the MIC came out at 0.16 µM (≈ 0.0714 µg/mL).
As for `O=c1nc(N2CCN(CCCCOc3ccccc3)CC2)sc2c([N+](=O)[O-])cc(C(F)(F)F)cc12`, the MIC in assay [21] turned out to be 0.0015 µg/mL (≈ 0.00295 µM).
For `CSc1ccc2c(c1)N(CCC1CCCCN1C)c1ccccc1S2` (centres undefined) [THIORIDAZINE], the MIC in assay [1] was found to be 15 µg/mL.
